Laboratory results reported in BigSolDB 2.1.

c1ccc(-c2nnn[nH]2)cc1
solubility (mole fraction)
Conditions	in 1,4-dioxane	in 2-butanone	in DMF	in DMSO	in acetone	in acetonitrile	in cyclohexane
283.15 K	0.00929	0.0156	0.208	–	0.0169	0.00181	3.56e-06
285.65 K	0.00982	0.0163	0.22	–	0.0176	0.00197	3.93e-06
288.15 K	0.0104	0.017	0.231	–	0.0184	0.00216	4.34e-06
290.65 K	0.0109	0.0178	0.244	–	0.0192	0.00236	4.54e-06
293.15 K	0.0114	0.0185	0.257	0.278	0.02	0.00253	5.04e-06
295.65 K	0.012	0.0193	0.269	0.291	0.0208	0.0028	5.38e-06
298.15 K	0.0125	0.0202	0.282	0.304	0.0217	0.00307	5.97e-06
300.65 K	0.0131	0.0211	0.296	0.317	0.0226	0.00331	6.41e-06
303.15 K	0.0138	0.022	0.308	0.33	0.0236	0.00359	6.91e-06
305.65 K	0.0145	0.023	0.322	0.343	0.0245	0.00389	–
308.15 K	0.0151	0.0239	0.336	0.356	0.0256	0.00421	–
310.65 K	0.0158	0.0249	0.35	0.369	0.0266	0.00449	–
313.15 K	0.0165	0.026	0.365	0.384	0.0278	0.0049	–
315.65 K	0.0172	0.0271	0.379	0.398	0.029	0.0052	–
318.15 K	0.018	0.0281	0.393	0.412	0.0302	0.00555	–
